Measured values taken from patent US6602856B1, “Antagonists of alpha-melanocyte stimulating hormone and methods based thereon” (priority 1995, dated 2003).
Non-standard residues stand in square brackets, D forms with d. No end group written: not given here. Nle = CCCC[C@H](N)C(=O)O

Assays:
[1] = system: cAMP stimulation evoked by AVT; assay: AVT evoked intracellular cAMP stimulation in Xenopus melanophores; assay type: cell-based, Xenopus laevis; conditions: AVT 8 nM
Protocol: (§1) Oxytocin antagonist GVT ([d(CH2)5, Tyr (Me)^2, Orn^8]-Vasotocin; from Peninsula), at 20 μM, is used as a control to block responses evoked by 8 Nm AVT. Intracellular CAMP measurements were taken from confluent Xenopus melanophores grown in 24-well tissue culture plates (Falcon). Each bar represents the mean and SSD of four independent measurements. *(T-test; P<0.001) for all groups except those bearing asterisks.
(§2) Melanophores were plated confluently into 24-well tissue culture (Falcon) plates two days before the assay. Immediately prior to an assay, cells were washed with 70% L-15 medium (Sigma) containing 0.05% bovine serum albumin and then treated with 1 nm melatonin in the same medium. Then, cells were washed for 5 min in 70% L-15+0.05% bovine serum albumin+0.5 mm 3-isobutyl-1-methylxanthine (Aldrich)+1 nm melatonin, followed by 30 min of treatment with the test drug in the same media. After the drug treatment, cells were washed twice with 70% phosphate-buffered saline.
(§3) Oxytocin antagonist GVT ([d(CH2)5, Tyr (Me)^2, Orn^8]-Vasotocin; from Peninsula), at 20 μM, is used as a control to block responses evoked by 8 nM AVT.

[2] = system: α-MSH mediated cAMP second messenger stimulation; assay: α-MSH mediated intracellular cAMP stimulation in Xenopus melanophores; assay type: cell-based, Xenopus laevis; conditions: peptide at 40 μM; α-MSH 10 nM
Protocol: as §1, §2, §3

[3] = molecular target: T1, endogenous amphibian MSH-receptors (Xenopus laevis, UniProt A0A1L8GF34); assay type: cell-based; conditions: against 15 nM α-MSH; melanophores pretreated with 1 nM melatonin; mean±SE
T1 sequence (A0A1L8GF34 1-317): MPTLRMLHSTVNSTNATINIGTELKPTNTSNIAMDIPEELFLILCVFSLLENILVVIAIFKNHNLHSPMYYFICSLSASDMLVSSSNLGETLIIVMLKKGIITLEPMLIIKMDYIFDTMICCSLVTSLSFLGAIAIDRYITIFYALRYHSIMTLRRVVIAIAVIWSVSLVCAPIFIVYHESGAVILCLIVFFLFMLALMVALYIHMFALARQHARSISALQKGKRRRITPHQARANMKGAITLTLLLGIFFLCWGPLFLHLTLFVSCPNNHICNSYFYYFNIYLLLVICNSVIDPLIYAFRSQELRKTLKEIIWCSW
Protocol: Melanin dispersion responses were quantitated by measuring transmittance through a monolayer of cultured melanophores pretreated with 1 nM melatonin (Potenza, et. al., 1992, Anal Biochem. 206, 315-22) and curve fit with a logistic equation (De Lean et al., 1978, Am J. Physiol. 235, E97-E102).
Broken lines indicate 99% confidence level.
(§4) Each point represents the mean and SSD of four independent transmittance measurements. Ti=initial transmittance (2 min.). Tf=final transmittance (60 min.).
(§5) For dose-response studies all tripeptides were synthesized on Rink Amide MBHA resin 0.25 mmol scale using standard Fmoc chemistry. After synthesis, peptides were purified suing HPLC and reverse-phase chromatography on a C18 column. The dose-response curves were obtained by microtiter plate assays (Potenza et al, 1992, Pigment Cell Res. 5, 372-378). Melanophore cells (18,000/well) were plated on 96-well tissue culture plates (Falcon).

[4] = system: vasoactive intestinal peptide (VIP) activated pigment dispersion in Xenopus melanophores; conditions: read-out: EC50 (pigment dispersion)
Protocol: as §4, §5
(§6) The 221,184 component library was organized as 96 sub-libraries with 2,304 different peptide combinations per pool, each defined by the chemical structure of the amino terminal position.

[5] = system: [Arg^8]-vasotocin (AVT) activated pigment dispersion in Xenopus melanophores; conditions: read-out: EC50 (pigment dispersion)
Protocol: as §4, §5, §6

Row | Substance | IC50 (μM) [3] | also measured
1 | D-Trp-Arg-Nle-NH2 [A2] | – | block of cAMP stimulation evoked by AVT ([1]; peptide at 40 μM): does not block; block of α-MSH mediated cAMP stimulation [2]: blocks
2 | [dW]-Asp-[Nle]-NH2 [B8] | Inactive | –
3 | Vasoactive Intestinal Peptide [VIP] | – | EC50 [4]: ~1 nM
4 | D-Trp-Arg-Ala-NH2 [A13] | Inactive | –
5 | D-Trp-Arg-εAhx-NH2 [A12] | Inactive | –
6 | D-Trp-Arg-βAla-NH2 [A14] | Inactive | –
7 | [d(CH2)5, Tyr (Me)^2, Orn^8]-Vasotocin [GVT, reference compound] | – | block of responses evoked by AVT (cAMP) ([1]; antagonist at 20 μM, control): block
8 | [Arg^8]-vasotocin [AVT] | – | EC50 [5]: ~2 nM
9 | D-Trp-Arg-γAbu-NH2 [A11] | Inactive | –
